Activity calls are given as the source filed them.
How the values were obtained:
[1] = molecular target: 5-hydroxytryptamine receptor 2A (Mus musculus, UniProt P35363); format: functional, cell-based;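 further: CHO-K1 cells with tagged receptor and beta-arrestin; agonist potency measured as compound-induced activation of the receptor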
Mu-type opioid receptor = Mu-type opioid receptor (Homo sapiens, UniProt P35372); format: functional, cell-based;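 further: U2OS cells with beta-arrestin recruitment to OPRM1 by beta-gal complementation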
[2] = molecular target: T1, Mannose-6-phosphate isomerase (Homo sapiens, UniProt P34949); assay: MPI enzyme activity inhibition – biochemical, fluorescence intensity, coupled assay, primary screen (AID 1209)
T1 sequence (P34949 whole entry): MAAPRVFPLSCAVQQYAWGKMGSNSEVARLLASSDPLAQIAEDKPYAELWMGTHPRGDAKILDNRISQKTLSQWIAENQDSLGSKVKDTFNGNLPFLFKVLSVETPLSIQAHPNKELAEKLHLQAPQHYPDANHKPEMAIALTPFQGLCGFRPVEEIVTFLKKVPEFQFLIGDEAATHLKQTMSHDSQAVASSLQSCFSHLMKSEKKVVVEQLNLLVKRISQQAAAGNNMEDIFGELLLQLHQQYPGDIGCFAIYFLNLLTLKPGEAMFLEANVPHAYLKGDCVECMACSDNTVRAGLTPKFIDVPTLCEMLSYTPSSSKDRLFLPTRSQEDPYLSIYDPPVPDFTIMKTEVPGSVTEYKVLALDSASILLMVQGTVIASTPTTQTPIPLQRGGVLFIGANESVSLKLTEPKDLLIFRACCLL

[3] = molecular target: T1, Mannose-6-phosphate isomerase; assay: MPI inhibition at elevated mannose 6-phosphate – biochemical, fluorescence intensity, high mannose 6-phosphate, primary screen (AID 1220)
[4] = molecular target: Heat shock protein HSP 90-alpha (Homo sapiens, UniProt P07900); assay: Luminescence-based dose response biochemical high throughput screening assay for inhibitors of the Heat Shock Protein 90 (HSP90). [Related pubchem assays: 1831 (Summary AID.), 1846 (Confirmation screen.), 1789 (Primary screen.)]
[5] = viability loss in HeLa cells – cytotoxicity control for MgcRacGAP inhibitor project, dose response (AID 624300); format: functional
[6] = molecular target: T2, Rac GTPase-activating protein 1 (Homo sapiens, UniProt Q9H0H5); assay: blockers of MgcRacGAP-driven Rac1 GTP hydrolysis – biochemical, ADP Hunter fluorescence, primary and confirmatory, confirmation (AID 624330); format: functional
T2 sequence (Q9H0H5 whole entry): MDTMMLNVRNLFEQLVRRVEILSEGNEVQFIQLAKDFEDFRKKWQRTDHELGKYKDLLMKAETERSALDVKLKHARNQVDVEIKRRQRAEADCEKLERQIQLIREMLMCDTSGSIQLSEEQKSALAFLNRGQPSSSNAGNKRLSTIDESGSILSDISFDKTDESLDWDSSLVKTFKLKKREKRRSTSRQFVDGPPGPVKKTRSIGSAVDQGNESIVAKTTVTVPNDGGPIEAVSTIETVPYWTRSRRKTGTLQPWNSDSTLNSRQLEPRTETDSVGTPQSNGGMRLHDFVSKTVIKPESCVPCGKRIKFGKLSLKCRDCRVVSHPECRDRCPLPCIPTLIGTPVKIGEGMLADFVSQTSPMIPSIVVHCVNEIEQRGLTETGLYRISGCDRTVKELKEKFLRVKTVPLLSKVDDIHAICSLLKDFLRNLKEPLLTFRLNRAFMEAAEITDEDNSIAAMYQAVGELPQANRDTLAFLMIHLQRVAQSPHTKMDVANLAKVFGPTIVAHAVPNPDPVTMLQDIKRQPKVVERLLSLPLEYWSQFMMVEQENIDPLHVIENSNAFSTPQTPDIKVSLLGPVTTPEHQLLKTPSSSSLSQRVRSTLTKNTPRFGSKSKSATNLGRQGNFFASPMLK

Major prion protein = Major prion protein (Homo sapiens, UniProt P04156); format: functional, cell-based
[7] = molecular target: T3, Serine/threonine-protein phosphatase (Candida dubliniensis (strain CD36 / CBS 7987 / NCPF 3949 / NRRLY-17841) (Yeast), UniProt B9W6M3); assay: blockers of CaCl2-induced CDRE-lacZ signaling – S. cerevisiae, luminescence, secondary, dose response (AID 2388); format: functional, cell-based;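 further: yeast reporter cells carrying a calcineurin-responsive lacZ construct stimulated with calcium chloride; luminescent beta-galactosidase reporter signal in whole cells rather than isolated phosphatase activity; potency for inhibition where a drop in reporter signal means calcineurin blockade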
T3 sequence (B9W6M3 whole entry): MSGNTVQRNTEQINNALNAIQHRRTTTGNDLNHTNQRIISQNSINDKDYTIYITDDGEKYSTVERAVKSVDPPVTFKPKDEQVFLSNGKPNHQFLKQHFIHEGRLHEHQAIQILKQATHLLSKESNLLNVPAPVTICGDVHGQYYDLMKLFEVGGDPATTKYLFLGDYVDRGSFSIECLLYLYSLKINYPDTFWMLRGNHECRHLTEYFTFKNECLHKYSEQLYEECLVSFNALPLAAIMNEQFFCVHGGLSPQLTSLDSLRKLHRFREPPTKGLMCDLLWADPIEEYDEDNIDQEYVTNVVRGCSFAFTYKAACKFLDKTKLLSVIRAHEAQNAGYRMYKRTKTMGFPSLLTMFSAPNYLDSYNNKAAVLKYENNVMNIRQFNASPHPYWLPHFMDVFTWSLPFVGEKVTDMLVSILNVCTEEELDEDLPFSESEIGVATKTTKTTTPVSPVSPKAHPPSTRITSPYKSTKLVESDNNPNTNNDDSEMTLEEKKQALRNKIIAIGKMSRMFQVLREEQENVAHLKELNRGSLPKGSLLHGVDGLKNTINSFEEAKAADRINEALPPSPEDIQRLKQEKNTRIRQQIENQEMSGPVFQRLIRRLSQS

Large T antigen = Large T antigen (Simian virus 40, UniProt P03070); format: functional, Betapolyomavirus macacae;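 further: Confirmatory-stage PubChem screen for compounds that inhibit SV40 T antigen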
[8] = fluconazole-exposed Candida albicans growth modulators – fluorescence, retest, confirmation (AID 2467); format: functional, cell-based
[9] = molecular target: ATP-dependent molecular chaperone HSP82 (Candida albicans (strain WO-1) (Yeast), UniProt C4YTQ8); assay: steroid-induced GRE reporter decrease in yeast – S. cerevisiae, luminescence, Hsp90 inhibitor project, dose response (AID 2400); format: functional, cell-based;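 further: beta-galactosidase luminescence from glucocorticoid response element reporter as proxy for Hsp90 function; inhibitor potency where signal loss means Hsp90 inhibition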
[10] = NIH-3T3 fibroblast cytotoxicity, dose response, cytotoxicity control, cell-based, fluorescence, Alamar Blue, secondary assay (AID 2327); format: functional;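 further: NIH-3T3 mouse fibroblasts cultured with fluconazole at 8 µg/mL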
[11] = molecular target: DNA dC->dU-editing enzyme APOBEC-3G (Homo sapiens, UniProt Q9HC16); assay: Dose Response confirmation of small molecule APOBEC3G DNA Deaminase Inhibitors via a fluorescence-based single-stranded DNA deaminase assay. [Related pubchem assays (depositor defined):AID493012, AID493028]; format: functional
[12] = molecular target: DNA dC->dU-editing enzyme APOBEC-3A (Homo sapiens, UniProt P31941); assay: A3A deaminase inhibition for selectivity – biochemical, dose response (AID 504722); format: functional
[13] = molecular target: T4, Polyadenylate-binding protein 1 (Homo sapiens, UniProt P11940); assay: MLLE domain peptide-binding blockers, IC50 – biochemical, fluorescence polarization, FITC-PAM2 peptide, dose response (AID 602259); format: functional; conditions: read-out: IC50_Mean
[14] = molecular target: T4, Polyadenylate-binding protein 1; assay: MLLE binding blockers, Cy5 peptide tracer – biochemical, fluorescence polarization, Cy5-PAM2 peptide, secondary, miRNA deadenylation inhibitor project, dose response (AID 602260); format: functional; conditions: read-out: IC50_Mean
Estrogen receptor beta = Estrogen receptor beta (Homo sapiens, UniProt Q92731);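 further: recombinant ER-beta bound to coactivator SRC1 peptide in presence of estradiol agonist; inhibitors block coactivator peptide binding and lower the FRET signal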
[15] = microbe, parasite or virus in culture; format: functional; conditions: Mycobacterium tuberculosis
[16] = molecular target: Disintegrin and metalloproteinase domain-containing protein 17 (Homo sapiens, UniProt P78536); assay: exosite inhibitors of ADAM17, dose response, biochemical (AID 743260)
[17] = inhibition of ADAM10 peptide cleavage – biochemical, FRET peptide substrate, recombinant human ADAM10, selectivity assay for ADAM17 exosite inhibitor project, dose response (AID 743259);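 further: ADAM10 enzyme cleaving a FRET peptide substrate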
[18] = molecular target: Mitogen-activated protein kinase 10 (Homo sapiens, UniProt P53779); assay: Dose response biochemical screening assay for inhibitors of c-Jun N-Terminal Kinase 3 (JNK3). [Related pubchem assays: 746 ]
[19] = Trypanosoma cruzi growth suppression in host cells – NIH3T3 host cells, beta-gal luminescence, confirmation (AID 2044); format: functional, cell-based;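 further: intracellular parasites grown in NIH/3T3 mouse fibroblasts as host cells; luminescent beta-galactosidase reporter signal from transgenic T. cruzi replicating inside host cells; inhibitors lower the luminescence signal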
[20] = NIH3T3 cell viability loss – ATP luminescence, mouse fibroblasts, counter-screen, dose response (AID 2010); format: functional, cell-based;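 further: cells exposed to compound for about 90 hours before reading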
[21] = intracellular Trypanosoma cruzi inhibitors in host cells – cell-based, plate reader, cherry-pick samples, set 3, dose response (AID 651818); format: functional;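 further: compounds incubated with infected cells for about four days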
Paired box protein Pax-8 = Paired box protein Pax-8 (Homo sapiens, UniProt Q06710); assay: PAX8 transcriptional activity inhibition in RMG-I – RMG-I cells, luciferase, cherry-pick, dose response (AID 687027); format: functional, cell-based;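 further: luciferase reporter driven by Pax8 target thyroperoxidase promoter measured by SteadyGlo luminescence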
[22] = OVCAR8 cell viability loss – plate reader, dry powder samples, PAX8 project, dose response (AID 743197); format: functional, cell-based; conditions: OVCAR-8
[23] = HIV-1 AD8 envelope cell-cell fusion blockers – cherry-pick, dose response (AID 652062); format: functional, cell-based;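 further: luciferase signal from cell-cell fusion driven by HIV-1 clade B AD8 Env; potency is for inhibitors of fusion seen as a drop in luminescence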
[24] = blockers of HIV-1 envelope-mediated cell-cell fusion – cherry-pick, dose response (AID 652057); format: functional, cell-based
[25] = general mammalian cell viability loss – inhibitor set, cherry-pick, set 2, cytotoxicity control for miR-122 modulator project, dose response (AID 720697); format: functional, cell-based

CCCN1CCC[C@H](c2cccc(O)c2)C1
EC50 [1]: 0.711 µM (active) | EC50 (Mu-type opioid receptor): 92.4 µM (inactive)

CC(C)(C)N1C(=O)Cc2c1nc(N)c1c(N)nc(N3CCCCC3CO)c(C#N)c21 (stereo not drawn)
IC50 [2]: > 50 µM (not active) | IC50 [3]: > 50 µM (not active)

CCOc1ccc(-c2nc(CN(Cc3ccccc3)C[C@@H]3CCC(=O)N3)c(C)o2)cc1
IC50 [4]: 3.05 µM (active)

Cn1nccc1C(=O)Nc1ccc(OC(=O)c2ccnn2C)cc1
CC50 [5]: 100 µM (active) | IC50 [6]: 16.7 µM (active)

CCCn1c(N)c(C(=O)CSc2nncs2)c(=O)[nH]c1=O
IC50 (cells): > 138 µM (inactive) | IC50 (Major prion protein): 5.88 µM (active)

CCc1cc(S)n2c(nc3ccccc32)c1C#N
EC50 [7]: > 180 µM (inactive) | IC50 (Large T antigen): 99.8 µM (active) | EC50 [8]: 0.254 µM (active) | EC50 [9]: > 150 µM (inactive) | EC50 [10]: > 150 µM (inactive)

CCn1c(O)nc(CS(=O)(=O)c2ccccc2)c1C
IC50 [11]: 6.9 µM (active) | IC50 [12]: > 100 µM (inactive) | IC50 [13]: > 66 µM (inactive) | IC50 [3]: 1.23 µM (active) | IC50 [14]: > 66 µM (inactive)

COC(=O)CSc1nc(-c2ccccc2)nc2ccc(F)cc12
IC50 (cells): > 138 µM (inactive) | IC50 (Major prion protein): 2.56 µM (active)

O=S(=O)(Nc1ncnc2sc3c(c12)CCC3)c1ccc2ccccc2c1
IC50 (Estrogen receptor beta): 25 µM (active)

Cc1ccnc(Sc2ccc([N+](=O)[O-])cc2[N+](=O)[O-])n1
EC50 [7]: > 180 µM (inactive) | EC50 [8]: 0.91 µM (active) | EC50 [9]: 23.6 µM (active) | CC50 [15]: 7.25 µM (active) | EC50 [10]: 14.2 µM (active)

CCN(c1ccccc1)S(=O)(=O)c1ccc(N2CCN(c3ccc(O)cc3)CC2)nc1
CC50 [5]: 100 µM (active) | IC50 [6]: 40.5 µM (active)

CCOC(=O)NC(=O)CSc1cc(C)c2cc(C)cc(C)c2n1
IC50 (cells): > 138 µM (inactive) | IC50 (Major prion protein): 9.4 µM (active)

CCOc1cccc(OCCOc2ccc(C(=O)c3ccccc3)cc2)c1
IC50 [16]: > 69.5 µM (inactive) | IC50 [17]: > 69.5 µM (inactive)

COc1cccc(N2CCN(Cc3nc(N)nc(N4CCCc5ccccc54)n3)CC2)c1
EC50 [1]: 76.1 µM (inactive) | EC50 (Mu-type opioid receptor): 92.4 µM (inactive)

Cc1ccc2[nH]c3c(c2c1)CCc1c[nH]nc1-3
IC50 [3]: 43.4 µM (active) | IC50 [18]: 16.4 µM (not active)

COc1cc(CC(=O)Nc2ncc(C)s2)cc(OC)c1OC
IC50 [18]: 13.3 µM (not active)

Cc1ccc(S(=O)(=O)N(CCCO)CC(O)CON=C2c3ccccc3-c3ccccc32)cc1 (stereo not drawn)
IC50 [16]: > 69.5 µM (inactive) | EC50 [19]: 1.6 µM (active) | EC50 [20]: > 60 µM (not active) | IC50 [17]: > 7.72 µM (active)

c1ccc(N2CCN(Cc3ccc4c(c3)OCO4)CC2)nc1
EC50 [1]: 0.0228 µM (active) | EC50 (Mu-type opioid receptor): 92.5 µM (inactive)

COc1ccc(NC(=O)C2(C)Cc3c(-c4cccc(C(F)(F)F)c4)ccnc3O2)cn1 (stereo not drawn)
IC50 [16]: > 69.5 µM (inactive) | IC50 [17]: 32.4 µM (inactive)

C[C@@H]1CCCCO[C@H](CN(C)S(=O)(=O)c2cccs2)[C@@H](C)CN([C@H](C)CO)C(=O)c2cc(NC(=O)Nc3ccc(C(F)(F)F)cc3)ccc2O1
AC50 [21]: 4.91 µM (active)

Cc1ccc(S(=O)(=O)Nc2cccc3c2O[C@@H](CN(C)Cc2ccc(Oc4ccccc4)cc2)[C@@H](C)CN([C@H](C)CO)C3=O)cc1
AC50 (Paired box protein Pax-8): 12.2 µM (active) | AC50 [21]: 2.89 µM (active)

COc1ccc(CN(C)C[C@H]2Oc3ccc(NC(=O)Nc4ccc(C(F)(F)F)cc4)cc3CC(=O)N([C@H](C)CO)C[C@H]2C)cc1
AC50 [21]: 3.5 µM (active)

C[C@@H]1CCCCO[C@@H](CN(C)Cc2ccc(Cl)c(Cl)c2)[C@H](C)CN([C@@H](C)CO)C(=O)c2cc(NS(=O)(=O)c3ccc(Cl)cc3)ccc2O1
AC50 (Paired box protein Pax-8): 7 µM (active) | AC50 [22]: 44 µM (active)

Cc1ccccc1S(=O)(=O)N1C[C@H](O)COC[C@H]2O[C@@H](CC(=O)NCc3ccccc3Cl)CC[C@@H]21
AC50 [23]: 6.43 µM (active) | AC50 [24]: 1.12 µM (active)

C[C@@H]1CCCCO[C@@H](CN(C)Cc2ccncc2)[C@H](C)CN([C@H](C)CO)C(=O)c2cc(NC(=O)Nc3ccc(C(F)(F)F)cc3)ccc2O1
AC50 (Paired box protein Pax-8): 6.48 µM (active) | AC50 [22]: 53.8 µM (active)

C[C@H](NC(=O)C[C@@H]1CC[C@H]2[C@H](COc3ccc(NS(=O)(=O)c4ccc(Cl)cc4)cc3C(=O)N2C)O1)c1ccccc1
AC50 [25]: 9.74 µM (active)

c1ccc2c(c1)nc(N1CCOCC1)c1c3ccccc3[nH]c21
IC50 [18]: 30.4 µM (not active)
